From patent US20040047863A1, “Combination therapy using a TNF binding protein for treating TNF-mediated diseases” (Amgen Inc., priority 1996, published 2004)

Columns and labels:
[1] = system: adjuvant arthritic rats; test: Adjuvant-induced arthritis model, combination of c105 sTNFR-I dumbbell and methotrexate (Example 1); assay type: in vivo, rat
Protocol: An animal model of rheumatoid arthritis induced by an adjuvant was used to investigate the combination therapy of a TNF binding protein and methotrexate in male Lewis rats (3-7/group) weighing at least 200 g.
On day-0, all rats were injected with 100 μl of Freunds Complete Adjuvant (Sigma Chemical Co., St. Louis, Mo.) to which a synthetic adjuvant, N,N-dioctyldecyldecyl-N′, N-bis(2-hydroxy-ethyl) propanediamine, 50 mg/ml, was added. On days 0-14 methotrexate in 1% carboxymethylcellulose (Sigma) was orally administered daily (0.06 mg/kg) to two groups of rats. On days 8, 10, 12, and 14, E. coli-derived c105 sTNFR-I dimerized with PEG-20,000-bis-vinyl sulfone (c105 sTNFR-I dumbbell; prepared generally in accordance with the teachings of WO 95/34326) formulated in pharmaceutical composition (34 mM NaCl, 10 mM sodium phosphate, 4% sorbitol (w/v) in water; pH 6.5) was administered by subcutaneous (SC) injection (3 mg/kg) to one group of rats being treated with both Freunds Complete Adjuvant and methotrexate and to another group of rats being treated with Freunds Complete Adjuvant alone.
Body weights were taken on day 0 and every other day from day 9 to termination on day 15. Caliper measurements and clinical scoring were done on day 9 and every other day until termination. At this time animal's body, paw and spleen weights were determined.

[2] = system: adjuvant arthritic rats; test: Adjuvant-induced arthritis model, combination of sTNFR-II Fc and methotrexate (Example 2); assay type: in vivo, rat
Protocol: An animal model of rheumatoid arthritis induced by an adjuvant was used to investigate the combination therapy of a TNF binding protein and methotrexate in male Lewis rats (5-7/group) weighing at least 200 g.
On day-0, all rats were injected with 100 μl of Freunds Complete Adjuvant (Sigma Chemical Co., St. Louis, Mo.) to which a synthetic adjuvant, N,N-dioctyldecyldecyl-N′, N-bis(2-hydroxy-ethyl) propanediamine, 50 mg/ml, was added. On day 0-14 methotrexate in 1% carboxymethylcellulose (Sigma) was orally administered daily (0.06 mg/kg) to two groups of rats. On days 9, 11, and 13, CHO-derived sTNFR-II/hIgG1 fusion protein (sTNFR-II Fc; prepared generally in accordance with the teachings of EP 418 014) formulated in pharmaceutical composition (34 mM NaCl, 10 mM sodium phosphate, 4% sorbitol (w/v) in water; pH 6.5) was administered by subcutaneous infusion (18 mg/kg) to one group of rats being treated with both Freunds Complete Adjuvant and methotrexate and to another group of rats being treated with Freunds Complete Adjuvant alone.
Body weights were taken on day 0 and every other day from day 9 to termination on day 15. Caliper measurements and clinical scoring were done daily from day 9 until termination on day 15. At this time animal's body, paw and spleen weights were determined.

[3] = system: MRL-1pr/1pr autoimmune mice challenged with LPS/D-GalNH2; test: LPS/D-Galactosamine induced lethality model (Example 3); assay type: in vivo, mouse; settings: N=6
Protocol: The combination immunotherapeutic effects of c105 STNFR-I dumbbell and fas fusion protein were assessed using a mouse model of D-Galactosamine (D-GalNH2) induced lethality. The D-galactosamine (D-GalNH2)/Lipopolysaccharide (LPS) model (Mountz et al., J. Immunology, 155:4829-4837). In this model, MRL-1pr/1pr autoimmune mice are administered D-GalNH2 with bacterial endotoxin (LPS), and lethality is observed through +96 hours post challenge.
After overnight fasting, 6-8 week old female MRL-1pr/1pr mice (Jackson Laboratory, Bar Harbor, Me.) (5/7/group) were cannulated with jugular catheters and allowed to recover for several days. They were then placed in infusion cages and acclimated for a week prior initiating saline infusion.
At hour-0, all mice were injected intraperitoneally with 31 micrograms of D-GalNH2 (Sigma) suspended in Hank's Balanced Salt Solution (Gibco BRL) (120 micrograms/ml); and lipopolysaccharide (LPS) from E. coli Serotype 0127:B8 (Sigma) in sterile, endotoxin-free phosphate buffered saline (PBS) (6 micrograms/mouse).
At 0-hour-+2 hours post-challenge, fas fusion protein formulated in a pharmaceutical composition (Phosphate buffered saline (Gibco BRL, Grand Island, N.Y.)) was administered intravenously in serial 2-fold dilutions (microgram/kg dosages) to two groups of mice. […]

[4] = final analysis (inhibition at termination, day 15), c105 sTNFR-I dumbbell 3 mg/kg SC, methotrexate 0.06 mg/kg oral daily
[5] = male Lewis rats, Freunds Complete Adjuvant, c105 sTNFR-I dumbbell 3 mg/kg SC days 8, 10, 12, 14, methotrexate 0.06 mg/kg oral daily days 0-14
[6] = male Lewis rats, Freunds Complete Adjuvant, c105 sTNFR-I dumbbell 3 mg/kg SC days 8, 10, 12, 14, methotrexate 0.06 mg/kg oral daily days 0-14, as reported with FIGS. 3 and 4
[7] = male Lewis rats, Freunds Complete Adjuvant, sTNFR-II Fc 18 mg/kg subcutaneous days 9, 11, 13, methotrexate 0.06 mg/kg oral daily days 0-14

## N-[4-[(2,4diamino-6-pteridinyl)methylamino]benzoyl]-L-glutamic acid [methotrexate]
[1]; [4]
  inhibition of body weight change: 3%
  inhibition of paw inflammation (terminal paw weights): 3.9%
  inhibition of splenomegaly (terminal spleen weights): 8.5%
[1]; [5]
  inhibition of paw swelling (area under the curve-AUC): 26%
[1]; [6]
  inhibition of body weight change: 3%
  inhibition of splenomegaly / spleen weight: no inhibition
[2]; final analysis (inhibition at termination, day 15), sTNFR-II Fc 18 mg/kg, methotrexate 0.06 mg/kg oral daily
  inhibition of paw inflammation (terminal paw weights): 74%
[2]; [7]
  inhibition of body weight change: 64%
  inhibition of paw swelling (area under the curve—AUC): 66%
  inhibition of splenomegaly / spleen weight: 74%

B1: c105 sTNFR-I dumbbell: E. coli-derived c105 sTNFR-I dimerized with PEG-20,000-bis-vinyl sulfone (protein, UniProt P19438 30-211, looked up)
extracellular domain: LVPHLGDREKRDSVCPQGKYIHPQNNSICCTKCHKGTYLYNDCPGPGQDTDCRECESGSFTASENHLRHCLSCSKCRKEMGQVEISSCTVDRDTVCGCRKNQYRHYWSENLFQCFNCSLCLNGTVHLSCQEKQNTVCTCHAGFFLRENECVSCSNCKKSLECTKLCLPQIENVKGTEDSGTT
modifications: extracellular domain c105 truncation; PEG-20000-bis-vinyl sulfone dimer
notes: E. coli-derived c105 sTNFR-I dimerized with PEG-20,000-bis-vinyl sulfone
[1]; [4]
  inhibition of body weight change: 13.2%
  inhibition of paw inflammation (terminal paw weights): 10.9%
  inhibition of splenomegaly (terminal spleen weights): 30.4%
[1]; [5]
  inhibition of paw swelling (area under the curve-AUC): about 42%
[1]; [6]
  inhibition of body weight change: about 13.2%
  inhibition of splenomegaly / spleen weight: no significant benefit
[3]; c105 sTNFR-I dumbbell 100 micrograms/kg I.V., time=−1 hour before challenge, P<0.01 vs saline control
  survival: 100%
[3]; sub-optimal dose 25 micrograms/kg, through +96 hours after challenge
  protection: −35%
